Source: patent US6664242B2 (priority 2000, dated 2003)
Where two headings read alike, the source gives them in different places.

Legend:
[1] = tested on: human colon carcinoma strain HCT-116; conditions: for Comments / Log10 cell Kill / T-C (Tumor Growth Delay): days 5-9, 12-16; for activity at the maximum tolerated dose: maximum tolerated doses, p.o., HCT-116 in Swiss-nude mice
Description: (§1) This efficacy may be quantified, for example by the log10 cells killed, which is determined by the following formula:
(§2) log10 cell killed=T-C(days)/3.32×Td
(§3) A product is considered to be active if the log10 cell kill is greater than or equal to 0.7. A product is considered to be very active is the log10 cell kill is greater than 2.8.

[2] = tested on: early stage HCT-116 colon carcinoma
Description: as §1, §2, §3
Three dosage levels of capecitabine were given alone on days 18-22 and 25-29. In the combination arm, two semi-simultaneous schedules were investigated.

[3] = tested on: metastatic colorectal cancer; conditions: oral capecitabine, first-line, phase III; cited from earlier work
[4] = CPT-11 60 mg/kg/adm p.o., days 18-22
[5] = CPT-11 96 mg/kg/adm p.o., days 18-22
[6] = capecitabine 443 mg/kg/adm p.o.
[7] = capecitabine 713 mg/kg/adm p.o.
[8] = capecitabine 443 mg/kg/adm p.o., days 18-22 & 25-29
[9] = capecitabine 713 mg/kg/adm p.o., days 18-22 & 25-29
[10] = capecitabine 1150 mg/kg/adm p.o., days 18-22 & 25-29

In the case of irinotecan [CPT-11], the Comments ([1]; CPT-11 29 mg/kg/adm p.o.) is reported as “Active”, the “Log10 cell Kill” value ([1]; CPT-11 29 mg/kg/adm p.o.) is reported as 2.1 and the “T-C (Tumor Growth Delay)” value ([1]; CPT-11 29 mg/kg/adm p.o.) is reported as 30.1 days. For the same molecule, the Comments ([1]; CPT-11 48 mg/kg/adm p.o.) was “HNTD”, the Comments ([1]; CPT-11 80 mg/kg/adm p.o.) was “Toxic” and the “activity at the maximum tolerated dose” value [1] was “highly active”. For the same molecule, the Comments [2, 4] was “Active”, the “Log10 cell Kill” value [2, 4] was 1.7 and the “T-C (Tumor Growth Delay)” value [2, 4] was 21.4 days. The Comments [2, 5] was “HNTD”, the “Log10 cell Kill” value [2, 5] was 1.7 and the “T-C (Tumor Growth Delay)” value [2, 5] was 21.3 days. The Comments ([2]; CPT-11 155 mg/kg/adm p.o., days 18-22) was “Toxic”.

With `CCCCCOC(=O)Nc1nc(=O)n([C@@H]2O[C@H](C)[C@@H](O)[C@H]2O)cc1F` [capecitabine, 5′-deoxy-5-fluoro-N-[(pentyloxy)-carbonyl]-cytidine] the Comments [1, 6] was “Active”, the “Log10 cell Kill” value [1, 6] was 1.1 and the “T-C (Tumor Growth Delay)” value [1, 6] was 16.3 days. For the same molecule, the Comments [1, 7] was “Active”, the “Log10 cell Kill” value [1, 7] was 2.6 and the “T-C (Tumor Growth Delay)” value [1, 7] was 38.7 days. For the same molecule, the “activity at the maximum tolerated dose” value [1] was “highly active”, the Comments [2, 8] was “Active” and the “Log10 cell Kill” value [2, 8] was 2.1. The “T-C (Tumor Growth Delay)” value [2, 8] was 26.1 days, the Comments [2, 9] was “Active” and the “Log10 cell Kill” value [2, 9] was 2.1. For the same molecule, the “T-C (Tumor Growth Delay)” value [2, 9] was 25.2 days, the “Log10 cell Kill” value [2, 10] was 3.2 and the “T-C (Tumor Growth Delay)” value [2, 10] was 39.4 days. The “efficacy compared with i.v. 5-FU/leucovorin (Mayo Clinic regimen)” value [3] was “superior response rate and at least equivalent survival and time to disease progression” and the “safety profile compared with the Mayo Clinic regimen” value [3] was “more favourable safety profile”.
